Experimental data taken from patent US4824944A, “Antineoplastic enamine derivatives of daunorubicin and adriamycin” (Politechnika Gdanska, priority 1987, dated 1989).

Legend:
mice = assay: Acute toxicity in mice after intraperitoneal administration (LD50, 24 hours); format: in vivo; conditions: daunorubicin versus the inventive derivatives
Description: (§1) The following Table I sets forth the comparative results of the effectiveness of the parent antibiotic, daunorubicin, in the inhibition of the growth of the cancerous cells of murine leukemia P-388 in mice versus the anticancer activity of enamine derivatives of daunorubicin according to the present invention. ED50 denotes the concentration of the compound being tested leading to 50 percent inhibition of cancerous cell growth at 48 hours incubation time of the compound being tested. LD50 indicates the dosage of the tested compounds which cause death after 24 hours of one-half of the number of mice which have been intraperitonically administered the subject compound. T/C in percent represents the ratio of mean survival time of the group of treated mice versus the group of untreated mice.

[1] = as above; format: in vivo; conditions: mouse, in vivo, ip; mice, intraperitoneal, death of one-half after 24 hours
Description: as §1

cardiac muscle of rats [2] = conditions: i.p., three dosage levels (0.2, 10, 20 mg/kg), H+E, light and polarizing microscopes; cited from earlier work
murine leukemia P-388 = assay: Anticancer activity in mice with leukemia P-388, survival time (T/C); format: in vivo; conditions: for T/C (second value, in parentheses): not explained
Description: as §1

cardiac muscle of rats [3] = assay: Examination of the cardiac muscle of rats after intraperitoneal administration (cardiotoxicity); format: in vivo; conditions: i.p., 0.2, 10 and 20 mg/kg, versus daunorubicin
From the text: Preparations from cardiac muscle tinted with H+E have been examined under light and polarizing microscopes.

For `COc1cccc2c1C(=O)c1c(O)c3c(c(O)c1C2=O)C[C@@](O)(C(C)=O)C[C@@H]3O[C@H]1C[C@H](N)[C@H](O)[C@H](C)O1` [Daunorubicin, daunorubicin], the “dosage level of toxic effects” value (mice) is listed as “occur at a far lower dosage level as opposed to the inventive derivatives”, the LD50 at 24 h [1] is listed as 135 mg/kg and the “subsegmentary contractions / disturbances in heart rhythm” value (cardiac muscle of rats [2]) is listed as “leads to the formation of numerous subsegmentary contractions causing, in effect, disturbances in heart rhythm”. The T/C (murine leukemia P-388; Dose (mg/kg) 3 130) was 108%, the T/C (murine leukemia P-388; Dose (mg/kg) 6 250) was 112% and the T/C (murine leukemia P-388; Dose (mg/kg) 12 500) was 112%. It also gave a T/C (murine leukemia P-388; Dose (mg/kg) 25 000) of 127% and a T/C (murine leukemia P-388; Dose (mg/kg) 50 000) of 102%.
In the case of `CCOC(=O)C=C(C)N[C@H]1C[C@H](O[C@H]2C[C@](O)(C(C)=O)Cc3c(O)c4c(c(O)c32)C(=O)c2c(OC)cccc2C4=O)O[C@@H](C)[C@H]1O` [N-(1-carboethoxy-propen-1-yl-2)-daunorubicin], the LD50 at 24 h [1] is listed as 500 mg/kg, the “subsegmentary contractions / disturbances in heart rhythm” value (cardiac muscle of rats [2]) is listed as “does not cause said disturbances, the cardiac muscle evidencing a regular and alternating system of isotropic and anizotropic fringes” and the “morphological and ultrastructural changes to muscular tissue” value (cardiac muscle of rats [3]) is listed as “considerably less morphological and ultrastructural changes to muscular tissue than does the initial daunorubicin”. It also gave a T/C (murine leukemia P-388; Dose (mg/kg) 3 130) of 94%, a T/C (murine leukemia P-388; Dose (mg/kg) 6 250) of 103% and a T/C (murine leukemia P-388; Dose (mg/kg) 12 500) of 103%. For the same molecule, the T/C (murine leukemia P-388; Dose (mg/kg) 25 000) was 115%, the “T/C (second value, in parentheses)” value (murine leukemia P-388; Dose (mg/kg) 25 000) was 119% and the T/C (murine leukemia P-388; Dose (mg/kg) 50 000) was 132%. The “T/C (second value, in parentheses)” value (murine leukemia P-388; Dose (mg/kg) 50 000) was 128%, the T/C (murine leukemia P-388; Dose (mg/kg) 100 000) was 144% and the T/C (murine leukemia P-388; Dose (mg/kg) 200 000) was 102%.
For `COc1cccc2c1C(=O)c1c(O)c3c(c(O)c1C2=O)C[C@@](O)(C(C)=O)C[C@@H]3O[C@H]1C[C@H](NC(C)=CC(C)=O)[C@H](O)[C@H](C)O1` [N--(penten-2-on-4 yl-2)-daunorubicin, N-(penten-2-on-4-yl-2) daunorubicin], the LD50 at 24 h [1] was 500 mg/kg, the T/C (murine leukemia P-388; Dose (mg/kg) 3 130) was 131% and the T/C (murine leukemia P-388; Dose (mg/kg) 6 250) was 110%. For the same molecule, the T/C (murine leukemia P-388; Dose (mg/kg) 12 500) was 119%, the T/C (murine leukemia P-388; Dose (mg/kg) 25 000) was 125% and the “T/C (second value, in parentheses)” value (murine leukemia P-388; Dose (mg/kg) 25 000) was 131%. The T/C (murine leukemia P-388; Dose (mg/kg) 50 000) was 118%, the “T/C (second value, in parentheses)” value (murine leukemia P-388; Dose (mg/kg) 50 000) was 144% and the T/C (murine leukemia P-388; Dose (mg/kg) 100 000) was 147%. For the same molecule, the T/C (murine leukemia P-388; Dose (mg/kg) 200 000) was “toxic”.
